Tests used:
A549 cells = experiment: Apoptosis induction, cell viability by trypan blue staining, A549 cells; type: cell-based; conditions: hANP 1, 5, 10 μM added 4 times, 48 hours
Description: Using a 96-well dish, the A549 cells were cultured at 1×10^4 cells/well. The culture medium was replaced with DMEM culture medium free from FBS the next day, and after 24-hours culture, the following experiment was conducted.
To the culture medium, a hANP solution prepared by serial dilution was added so that the final concentration of hANP would be 1, 5, or 10 μM (for the control group, the same amount of physiological saline was added). Further, 2, 4, and 6 hours later, the same amounts of the hANP solutions at the same concentrations were added (for the control group, the same amount of physiological saline was added) (4 times in total). 48 hours later, trypan blue staining was performed and the cell viability (number of living cells/total number of all cells) was determined with the use of an automatic cell counter Countess (registered trademark) (Invitrogen).

mouse melanoma B16-F10 = experiment: Mouse tail vein injection metastasis test, mouse melanoma B16-F10; type: in vivo, mice; conditions: 0.5 μg/kg/min by subcutaneous osmotic pump, 2 weeks
Description: 6-week-old male […] mice were used (purchased from Japan SLC, Inc.). Mouse melanoma B16-F10 was purchased from ATCC, and cultured in DMEM (Life Technologies Corp.) containing 10% FCS under 5% CO2 at 37° C. The cells in a subconfluent state were treated with EDTA-trypsin, centrifuged, and then suspended in serum free DMEM so as to be 5×10^6 cells/mL. The melanoma cell suspension (100 μL/mouse, 5×10^5 cells) was injected to the tail vein of the mice. The osmotic pumps used were MODEL2002 (for 14-day administration) made by ALZET (Cupertino, Calif,.).
Mice into which an osmotic pump containing 0.9% physiological saline was subcutaneously implanted in the back were assigned to the control group. Similarly, an osmotic pump containing hANP prepared for administration at 0.5 μg/kg/min was subcutaneously implanted into each mouse in the ANP group, an osmotic pump containing mouse BNP prepared for administration at 0.5 μg/kg/min was subcutaneously implanted into each mouse in the BNP group, and an osmotic pump containing hCNP-22 prepared for administration at 2.5 μg/kg/min was subcutaneously implanted into each mouse in the CNP group. To the mice in the sildenafil group, sildenafil citrate at a dosage of 20 mg/kg was intraperitoneally administered once daily. […]

## CC[C@H](C)[C@@H]1NC(=O)[C@H](CCCNC(=N)N)NC(=O)[C@H](CC(=O)O)NC(=O)[C@H](CCSC)NC(=O)[C@H](CCCNC(=N)N)NC(=O)CNC(=O)CNC(=O)[C@H](Cc2ccccc2)NC(=O)[C@@H](NC(=O)[C@H](CO)NC(=O)[C@H](CO)NC(=O)[C@H](CCCNC(=N)N)NC(=O)[C@H](CCCNC(=N)N)NC(=O)[C@H](CC(C)C)NC(=O)[C@@H](N)CO)CSSC[C@@H](C(=O)N[C@@H](CC(N)=O)C(=O)N[C@@H](CO)C(=O)N[C@@H](Cc2ccccc2)C(=O)N[C@@H](CCCNC(=N)N)C(=O)N[C@@H](Cc2ccc(O)cc2)C(=O)O)NC(=O)CNC(=O)[C@H](CC(C)C)NC(=O)CNC(=O)[C@H](CO)NC(=O)[C@H](CCC(N)=O)NC(=O)[C@H](C)NC(=O)CNC1=O [hANP, carperitide]
A549 cells
  number of living cancer cells (cell viability): decreased in a hANP-concentration-dependent manner
Mouse melanoma B16-F10
  lung metastasis of melanoma (number of nodules): significantly suppressed
